# Where a name gives a salt, the structure may show the parent alone.
# Target: T1, human factor Xa (Homo sapiens, UniProt P00742)
# T1 construct: factor Xa, which is formed from the proenzyme factor X
# Experiment: Determination of the factor Xa inhibition (fluorogenic substrate Boc-Ile-Glu-Gly-Arg-AMC)
# Format: biochemical
# Settings: human factor Xa 1.3 nmol/l, 15 min preincubation at 22° C., substrate 5 μmol/l, pH 7.4
# Protocol: • a.1) Determination of the Factor Xa Inhibition
# In order to determine the factor Xa inhibition of the substances listed above, a biochemical test system is set up, in which the conversion of a factor Xa substrate is used to determine the enzymatic activity of human factor Xa. Here Factor Xa cleaves aminomethylcoumarin, whose fluorescence is measured, from the peptidic substrate. The determinations are carried out in microtitre plates.
# Substances to be tested, in various concentrations, are dissolved in dimethyl sulphoxide and incubated for 15 min at 22° C. with human factor Xa (1.3 nmol/l dissolved in 50 mmol/l of Tris buffer [C,C,C-tris(hydroxymethyl)aminomethane], 100 mmol/l NaCl, 0.1% BSA [bovine serum albumin], pH 7.4). The substrate (5 μmol/l of Boc-Ile-Glu-Gly-Arg-AMC from Bachem) is then added. After an incubation time of 30 min, the sample is excited at a wavelength of 360 nm, and the emission at 460 nm is measured. The measured emissions of the test batches with test substance are compared to the control batches without test substance (only dimethyl sulphoxide instead of test substance in dimethyl sulphoxide), and IC50 values are calculated from the concentration/activity relationships.
# T1 sequence (P00742 235-488 limits assumed): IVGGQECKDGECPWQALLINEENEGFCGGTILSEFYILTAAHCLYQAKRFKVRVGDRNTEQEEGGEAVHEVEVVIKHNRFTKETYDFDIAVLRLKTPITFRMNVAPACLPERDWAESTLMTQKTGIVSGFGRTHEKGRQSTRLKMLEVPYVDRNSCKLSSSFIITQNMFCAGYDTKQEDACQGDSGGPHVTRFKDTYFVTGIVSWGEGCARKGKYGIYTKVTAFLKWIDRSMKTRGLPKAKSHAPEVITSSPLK
# T1 sequence (P00742 41-179 partner limits assumed): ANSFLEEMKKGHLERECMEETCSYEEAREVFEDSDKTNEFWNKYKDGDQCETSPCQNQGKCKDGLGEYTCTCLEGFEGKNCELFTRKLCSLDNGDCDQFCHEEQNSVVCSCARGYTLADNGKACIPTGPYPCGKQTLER
row,IC50,Compound
1,0.8 nM,"O=C(NCc1cn(-c2ccc(N3CCOCC3=O)cc2)nc1-c1cccnc1)c1ccc(Cl)s1 [Example 3, 5-Chloro-N-({1-[4-(3-oxomorpholin-4-yl)phenyl]-3-pyridin-3-yl-1H-pyrazol-4-yl}methyl)thiophene-2-carboxamide hydrochloride]"
2,0.7 nM,"O=C(NCc1cn(-c2ccc(N3CCOCC3=O)cc2)nc1-c1ccccc1)c1ccc(Cl)s1 [Example 1, 5-Chloro-N-({1-[4-(3-oxomorpholin-4-yl)phenyl]-3-phenyl-1H-pyrazol-4-yl}methyl)thiophene-2-carboxamide]"
3,0.7 nM,"Cc1cc(-n2cc(CNC(=O)c3ccc(Cl)s3)c(-c3ccccc3)n2)ccc1N1CCOCC1=O [Example 2, 5-Chloro-N-({1-[3-methyl-4-(3-oxomorpholin-4-yl)phenyl]-3-phenyl-1H-pyrazol-4-yl}methyl)-thiophene-2-carboxamide]"

# — patent US8263624B2, “Aryl-substituted heterocycles, and use thereof” (Bayer Intellectual Property GmbH, priority 2006, dated 2012)
